# Where two headings read alike, the source gives them in different places. Where a SMILES comes first, the peptide text is derived from it. [ ]: non-standard residue; d: D form. The star is where a group is joined. Palmitoyl = CCCCCCCCCCCCCCCC(=O)*
# Legend:
# APJ receptor = molecular target: T1, APJ receptor (Homo sapiens, UniProt P35414); assay: HTRF cAMP assay, inhibition of NKH477 stimulated cAMP in Human TRex cells expressing APJ upon doxycycline induction (APJ-hTREX); type: cell-based; details: for Ranking: class combining EC50 and % histamine; for percent intrinsic activity at 0.3 µM: read-out: % IA (@ 300 nM)
# T1 construct: expressed in transfected cells; host or cells: Human TRex cells (doxycycline-inducible)
# T1 sequence (P35414 1-380): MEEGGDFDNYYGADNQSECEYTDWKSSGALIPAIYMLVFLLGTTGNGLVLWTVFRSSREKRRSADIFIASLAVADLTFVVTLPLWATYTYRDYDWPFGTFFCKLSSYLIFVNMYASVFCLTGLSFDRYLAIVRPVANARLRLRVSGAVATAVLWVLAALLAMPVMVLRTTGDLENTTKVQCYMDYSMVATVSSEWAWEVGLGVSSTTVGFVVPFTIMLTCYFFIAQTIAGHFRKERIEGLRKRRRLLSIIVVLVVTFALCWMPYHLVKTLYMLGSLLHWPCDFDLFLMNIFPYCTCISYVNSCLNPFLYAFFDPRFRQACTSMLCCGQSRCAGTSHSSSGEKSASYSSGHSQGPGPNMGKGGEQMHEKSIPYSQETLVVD
# Procedure, shortened: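 Cells stimulated with NKH477 and cAMP measured by HTRF competitive immunoassay (cryptate anti-cAMP antibody, d2-labeled cAMP). APJ-hTREX cells induced with […] doxycycline and seeded overnight at 40 k/well.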
# [1] = inhibition of NKH477 stimulated cAMP, APJ-hTREX cells, read-out: APJ-hTREX EC50
Structure (SMILES),EC50 (APJ receptor) [nM],Ranking (APJ receptor),percent intrinsic activity at 0.3 µM (APJ receptor) [%],Histimine (% vs. 48/40) (Histimine (% vs. 48/40)) [%],EC50 (APJ receptor; [1]) [nM]
CCCCCCCCCCCCCCCC(=O)N[C@H](C(=O)N[C@H](C(=O)N[C@@H](Cc1ccccc1)C(=O)N[C@@H](CCCNC(=N)N)C(=O)N[C@@H](CO)C(=O)N[C@@H](CO)C(=O)N[C@@H](CCC(=O)O)C(=O)N[C@H](CCCCN)C(=O)N[C@@H](CCC(N)=O)C(=O)N[C@@H](CCCNC(=N)N)C(=O)N[C@@H](CO)C(=O)N[C@@H](C)C(=O)N[C@@H](CC(=O)O)C(=O)N[C@H](C(=O)N[C@@H](Cc1ccccc1)C(=O)N[C@H](C(N)=O)[C@@H](C)CC)[C@@H](C)CC)C(C)C)[C@@H](C)O [Compound 26] (Palmitoyl-TVFRSSE[dK]QRSADIFI-NH2; C-terminus assumed),112,**** (EC50 101-500 nM and % histamine<35%),6,−1,
CCCCCCCCCCCCCCCC(=O)N[C@H](C(=O)N[C@H](C(=O)N[C@@H](Cc1ccccc1)C(=O)N[C@@H](CCCNC(=N)N)C(=O)N[C@@H](CO)C(=O)N[C@@H](CO)C(=O)N[C@@H](CCC(=O)O)C(=O)N[C@H](CCCCN)C(=O)N[C@@H](CCCNC(=N)N)C(=O)N[C@@H](CCC(N)=O)C(=O)N[C@@H](CO)C(=O)N[C@@H](C)C(=O)N[C@@H](CC(=O)O)C(=O)N[C@H](C(=O)N[C@@H](Cc1ccccc1)C(=O)N[C@H](C(N)=O)[C@@H](C)CC)[C@@H](C)CC)C(C)C)[C@@H](C)O [Compound 27] (Palmitoyl-TVFRSSE[dK]RQSADIFI-NH2),,,7,4,
CCCCCCCCCCCCCCCC(=O)N[C@H](C(=O)N[C@H](C(=O)N[C@@H](Cc1ccccc1)C(=O)N[C@@H](CCCNC(=N)N)C(=O)N[C@@H](CO)C(=O)N[C@@H](CO)C(=O)N[C@@H](CCC(=O)O)C(=O)N[C@H](CCCCN)C(=O)N[C@@H](CCCNC(=N)N)C(=O)N[C@@H](CCCNC(=N)N)C(=O)N[C@@H](CO)C(=O)N[C@@H](CCC(N)=O)C(=O)N[C@@H](CC(=O)O)C(=O)N[C@H](C(=O)N[C@@H](Cc1ccccc1)C(=O)N[C@H](C(N)=O)[C@@H](C)CC)[C@@H](C)CC)C(C)C)[C@@H](C)O [Compound 28] (Palmitoyl-TVFRSSE[dK]RRSQDIFI-NH2),,,8,16,
CCCCCCCCCCCCCCCC(=O)N[C@H](C(=O)N[C@H](C(=O)N[C@@H](Cc1ccccc1)C(=O)N[C@@H](CCCNC(=N)N)C(=O)N[C@@H](CO)C(=O)N[C@@H](CO)C(=O)N[C@@H](CCC(=O)O)C(=O)N[C@H](CCCCN)C(=O)N[C@@H](CCCNC(=N)N)C(=O)N[C@@H](CCCNC(=N)N)C(=O)N[C@@H](CO)C(=O)N[C@@H](C)C(=O)N[C@@H](CCC(N)=O)C(=O)N[C@H](C(=O)N[C@@H](Cc1ccccc1)C(=O)N[C@H](C(N)=O)[C@@H](C)CC)[C@@H](C)CC)C(C)C)[C@@H](C)O [Compound 29] (Palmitoyl-TVFRSSE[dK]RRSAQIFI-NH2),,,9,92,
CCCCCCCCCCCCCCCC(=O)N[C@H](C(=O)N[C@H](C(=O)N[C@@H](Cc1ccccc1)C(=O)N[C@@H](CCCNC(=N)N)C(=O)N[C@@H](CO)C(=O)N[C@@H](CO)C(=O)N[C@@H](CCC(=O)O)C(=O)N[C@H](CCCCN)C(=O)N[C@@H](CCCNC(=N)N)C(=O)N[C@@H](CCCNC(=N)N)C(=O)N[C@@H](CO)C(=O)N[C@@H](C)C(=O)N[C@@H](CC(=O)O)C(=O)N[C@@H](CCC(N)=O)C(=O)N[C@@H](Cc1ccccc1)C(=O)N[C@H](C(N)=O)[C@@H](C)CC)C(C)C)[C@@H](C)O [Compound 30] (Palmitoyl-TVFRSSE[dK]RRSADQFI-NH2; C-terminus assumed),,*** (EC50<100 nM and % histamine>35%),98,63,84.6
CCCCCCCCCCCCCCCC(=O)N[C@H](C(=O)N[C@H](C(=O)N[C@@H](Cc1ccccc1)C(=O)N[C@@H](CCCNC(=N)N)C(=O)N[C@@H](CO)C(=O)N[C@@H](CO)C(=O)N[C@@H](CCC(=O)O)C(=O)N[C@H](CCCCN)C(=O)N[C@@H](CCCNC(=N)N)C(=O)N[C@@H](CCCNC(=N)N)C(=O)N[C@@H](CO)C(=O)N[C@@H](C)C(=O)N[C@@H](CC(=O)O)C(=O)N[C@H](C(=O)N[C@@H](CCC(N)=O)C(=O)N[C@H](C(N)=O)[C@@H](C)CC)[C@@H](C)CC)C(C)C)[C@@H](C)O [Compound 31] (Palmitoyl-TVFRSSE[dK]RRSADIQI-NH2),,,67,68,
CCCCCCCCCCCCCCCC(=O)N[C@H](C(=O)N[C@H](C(=O)N[C@@H](Cc1ccccc1)C(=O)N[C@@H](CCCNC(=N)N)C(=O)N[C@@H](CO)C(=O)N[C@@H](CO)C(=O)N[C@@H](CCC(=O)O)C(=O)N[C@H](CCCCN)C(=O)N[C@@H](CCCNC(=N)N)C(=O)N[C@@H](CCCNC(=N)N)C(=O)N[C@@H](CO)C(=O)N[C@@H](C)C(=O)N[C@@H](CC(=O)O)C(=O)N[C@H](C(=O)N[C@@H](Cc1ccccc1)C(=O)N[C@@H](CCC(N)=O)C(N)=O)[C@@H](C)CC)C(C)C)[C@@H](C)O [Compound 32] (Palmitoyl-TVFRSSE[dK]RRSADIFQ-NH2),,,55,69,
CCCCCCCCCCCCCCCC(=O)N[C@@H](CC(=O)O)C(=O)N[C@H](C(=O)N[C@@H](Cc1ccccc1)C(=O)N[C@@H](CCCNC(=N)N)C(=O)N[C@@H](CO)C(=O)N[C@@H](CO)C(=O)N[C@@H](CCC(=O)O)C(=O)N[C@H](CCCCN)C(=O)N[C@@H](CCCNC(=N)N)C(=O)N[C@@H](CCCNC(=N)N)C(=O)N[C@@H](CO)C(=O)N[C@@H](C)C(=O)N[C@@H](CC(=O)O)C(=O)N[C@H](C(=O)N[C@@H](Cc1ccccc1)C(=O)N[C@H](C(N)=O)[C@@H](C)CC)[C@@H](C)CC)C(C)C [Compound 33] (Palmitoyl-DVFRSSE[dK]RRSADIFI-NH2; C-terminus assumed),107,**** (EC50 101-500 nM and % histamine<35%),61,11,
CCCCCCCCCCCCCCCC(=O)N[C@H](C(=O)N[C@H](C(=O)N[C@@H](CC(=O)O)C(=O)N[C@@H](CCCNC(=N)N)C(=O)N[C@@H](CO)C(=O)N[C@@H](CO)C(=O)N[C@@H](CCC(=O)O)C(=O)N[C@H](CCCCN)C(=O)N[C@@H](CCCNC(=N)N)C(=O)N[C@@H](CCCNC(=N)N)C(=O)N[C@@H](CO)C(=O)N[C@@H](C)C(=O)N[C@@H](CC(=O)O)C(=O)N[C@H](C(=O)N[C@@H](Cc1ccccc1)C(=O)N[C@H](C(N)=O)[C@@H](C)CC)[C@@H](C)CC)C(C)C)[C@@H](C)O [Compound 35] (Palmitoyl-TVDRSSE[dK]RRSADIFI-NH2; C-terminus assumed),142,**** (EC50 101-500 nM and % histamine<35%),70,4,
CCCCCCCCCCCCCCCC(=O)N[C@H](C(=O)N[C@H](C(=O)N[C@@H](Cc1ccccc1)C(=O)N[C@@H](CCCNC(=N)N)C(=O)N[C@@H](CO)C(=O)N[C@@H](CO)C(=O)N[C@@H](CCC(=O)O)C(=O)N[C@H](CCCCN)C(=O)N[C@@H](CCCNC(=N)N)C(=O)N[C@@H](CCCNC(=N)N)C(=O)N[C@@H](CC(=O)O)C(=O)N[C@@H](C)C(=O)N[C@@H](CC(=O)O)C(=O)N[C@H](C(=O)N[C@@H](Cc1ccccc1)C(=O)N[C@H](C(N)=O)[C@@H](C)CC)[C@@H](C)CC)C(C)C)[C@@H](C)O [Compound 38] (Palmitoyl-TVFRSSE[dK]RRDADIFI-NH2; C-terminus assumed),,* (EC50>500 nM and % histamine>35%),46,13,732
CCCCCCCCCCCCCCCC(=O)N[C@H](C(=O)N[C@H](C(=O)N[C@@H](Cc1ccccc1)C(=O)N[C@@H](CCCNC(=N)N)C(=O)N[C@@H](CO)C(=O)N[C@@H](CO)C(=O)N[C@@H](CCC(=O)O)C(=O)N[C@H](CCCCN)C(=O)N[C@@H](CCCNC(=N)N)C(=O)N[C@@H](CCCNC(=N)N)C(=O)N[C@@H](CO)C(=O)N[C@@H](CC(=O)O)C(=O)N[C@@H](CC(=O)O)C(=O)N[C@H](C(=O)N[C@@H](Cc1ccccc1)C(=O)N[C@H](C(N)=O)[C@@H](C)CC)[C@@H](C)CC)C(C)C)[C@@H](C)O [Compound 39] (Palmitoyl-TVFRSSE[dK]RRSDDIFI-NH2),,,27,8,
CCCCCCCCCCCCCCCC(=O)N[C@H](C(=O)N[C@H](C(=O)N[C@@H](Cc1ccccc1)C(=O)N[C@@H](CCCNC(=N)N)C(=O)N[C@@H](CO)C(=O)N[C@@H](CO)C(=O)N[C@@H](CCC(=O)O)C(=O)N[C@H](CCCCN)C(=O)N[C@@H](CCCNC(=N)N)C(=O)N[C@@H](CCCNC(=N)N)C(=O)N[C@@H](CO)C(=O)N[C@@H](C)C(=O)N[C@@H](CC(=O)O)C(=O)N[C@@H](CC(=O)O)C(=O)N[C@@H](Cc1ccccc1)C(=O)N[C@H](C(N)=O)[C@@H](C)CC)C(C)C)[C@@H](C)O [Compound 40] (Palmitoyl-TVFRSSE[dK]RRSADDFI-NH2; C-terminus assumed),,*** (EC50<100 nM and % histamine>35%),71,46,48.2

# Source: patent US20150011466A1, “APJ Receptor Compounds” (priority 2012, published 2015)
